# Test results: the supplement of paper PMC10307832
# How the values were obtained:
# Test in all cases: relative viability (nuclei count vs DMSO), 5 days (fraction); higher = more cells survive
# HCC-78 = test system: HCC-78
# Outline: (§1)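 Values are medians from duplicate plates. Each reflects relative viability, defined as the nuclei count of treated wells over that of vehicle wells. Lung cancer cell lines in 1536-well plates were pin-tool dosed one day after seeding with one drug alone or with a fixed anchor-drug dose plus five library-drug doses (not always all listed) in √10 steps, then fixed, stained and imaged at 4× after 5 days.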
# EBC-1 = test system: EBC-1
# Outline: as §1
# NCI-H1437 = test system: NCI-H1437
# Outline: as §1
# NCI-H1975 = test system: NCI-H1975
# Outline: as §1
# COR-L23 = test system: COR-L23
# Outline: as §1
# HCC-15 = test system: HCC-15
# Outline: as §1
# NCI-H727 = test system: NCI-H727
# Outline: as §1
# PC-14 = test system: PC-14
# Outline: as §1
# NCI-H1666 = test system: NCI-H1666
# Outline: as §1
# COR-L 105 = test system: COR-L 105
# Outline: as §1
# HCC-366 = test system: HCC-366
# Outline: as §1
# 201T = test system: 201T
# Outline: as §1
# NCI-H1915 = test system: NCI-H1915
# Outline: as §1
# HCC-44 = test system: HCC-44
# Outline: as §1
# NCI-H3122 = test system: NCI-H3122
# Outline: as §1
# A-427 = test system: A-427
# Outline: as §1
# LK-2 = test system: LK-2
# Outline: as §1
# NCI-H1648 = test system: NCI-H1648
# Outline: as §1
# HARA = test system: HARA
# Outline: as §1
# LCLC-97TM1 = test system: LCLC-97TM1
# Outline: as §1
# NCI-H1944 = test system: NCI-H1944
# Outline: as §1
# NCI-H2023 = test system: NCI-H2023
# Outline: as §1
# NCI-H2405 = test system: NCI-H2405
# Outline: as §1
# NCI-H460 = test system: NCI-H460
# Outline: as §1
smiles,measurement,setting,value
Nc1cccc2c1CN(C1CCC(=O)NC1=O)C2=O (stereo not drawn) [Lenalidomide] + O=C(c1cc(Cc2n[nH]c(=O)c3ccccc23)ccc1F)N1CCN(C(=O)C2CC2)CC1 [Olaparib] (partner 8 µM),relative viability,HCC-78; first compound 0.253 µM,0.861
same,relative viability,HCC-78; first compound 0.8 µM,0.858
same,relative viability,HCC-78; first compound 2.53 µM,0.87
same,relative viability,HCC-78; first compound 8 µM,0.814
same,relative viability,EBC-1; first compound 0.253 µM,0.708
same,relative viability,EBC-1; first compound 0.8 µM,0.603
same,relative viability,EBC-1; first compound 2.53 µM,0.823
same,relative viability,EBC-1; first compound 8 µM,0.691
same,relative viability,NCI-H1437; first compound 0.253 µM,0.612
same,relative viability,NCI-H1437; first compound 0.8 µM,0.629
same,relative viability,NCI-H1437; first compound 2.53 µM,0.638
same,relative viability,NCI-H1437; first compound 8 µM,0.677
same,relative viability,NCI-H1975; first compound 0.253 µM,0.912
same,relative viability,NCI-H1975; first compound 0.8 µM,0.694
same,relative viability,NCI-H1975; first compound 2.53 µM,0.876
same,relative viability,NCI-H1975; first compound 8 µM,0.995
same,relative viability,COR-L23; first compound 0.253 µM,0.329
same,relative viability,COR-L23; first compound 0.8 µM,0.316
same,relative viability,COR-L23; first compound 2.53 µM,0.356
same,relative viability,COR-L23; first compound 8 µM,0.393
same,relative viability,HCC-15; first compound 0.253 µM,0.686
same,relative viability,HCC-15; first compound 0.8 µM,0.728
same,relative viability,HCC-15; first compound 2.53 µM,0.819
same,relative viability,HCC-15; first compound 8 µM,0.706
same,relative viability,NCI-H727; first compound 0.253 µM,0.732
same,relative viability,NCI-H727; first compound 0.8 µM,0.706
same,relative viability,NCI-H727; first compound 2.53 µM,0.633
same,relative viability,NCI-H727; first compound 8 µM,0.7
same,relative viability,PC-14; first compound 0.253 µM,0.302
same,relative viability,PC-14; first compound 0.8 µM,0.243
same,relative viability,PC-14; first compound 2.53 µM,0.374
same,relative viability,PC-14; first compound 8 µM,0.436
same,relative viability,NCI-H1666; first compound 0.253 µM,0.781
same,relative viability,NCI-H1666; first compound 0.8 µM,0.717
same,relative viability,NCI-H1666; first compound 2.53 µM,0.776
same,relative viability,NCI-H1666; first compound 8 µM,0.759
same,relative viability,COR-L 105; first compound 0.253 µM,0.737
same,relative viability,COR-L 105; first compound 0.8 µM,0.712
same,relative viability,COR-L 105; first compound 2.53 µM,0.748
same,relative viability,COR-L 105; first compound 8 µM,0.774
same,relative viability,HCC-366; first compound 0.253 µM,0.328
same,relative viability,HCC-366; first compound 0.8 µM,0.309
same,relative viability,HCC-366; first compound 2.53 µM,0.373
same,relative viability,HCC-366; first compound 8 µM,0.394
same,relative viability,201T; first compound 0.253 µM,0.847
same,relative viability,201T; first compound 0.8 µM,0.865
same,relative viability,201T; first compound 2.53 µM,0.864
same,relative viability,201T; first compound 8 µM,0.92
same,relative viability,NCI-H1915; first compound 0.253 µM,0.265
same,relative viability,NCI-H1915; first compound 0.8 µM,0.263
same,relative viability,NCI-H1915; first compound 2.53 µM,0.284
same,relative viability,NCI-H1915; first compound 8 µM,0.272
same,relative viability,HCC-44; first compound 0.253 µM,0.981
same,relative viability,HCC-44; first compound 0.8 µM,0.873
same,relative viability,HCC-44; first compound 2.53 µM,1.02
same,relative viability,HCC-44; first compound 8 µM,1.05
same,relative viability,NCI-H3122; first compound 0.253 µM,0.596
same,relative viability,NCI-H3122; first compound 0.8 µM,0.579
same,relative viability,NCI-H3122; first compound 2.53 µM,0.623
same,relative viability,NCI-H3122; first compound 8 µM,0.745
same,relative viability,A-427; first compound 0.253 µM,0.713
same,relative viability,A-427; first compound 0.8 µM,0.504
same,relative viability,A-427; first compound 2.53 µM,0.838
same,relative viability,A-427; first compound 8 µM,0.79
same,relative viability,LK-2; first compound 0.253 µM,0.881
same,relative viability,LK-2; first compound 0.8 µM,0.413
same,relative viability,LK-2; first compound 2.53 µM,0.571
same,relative viability,LK-2; first compound 8 µM,0.387
same,relative viability,NCI-H1648; first compound 0.253 µM,0.883
same,relative viability,NCI-H1648; first compound 2.53 µM,1.12
same,relative viability,NCI-H1648; first compound 8 µM,0.922
same,relative viability,HARA; first compound 0.253 µM,0.925
same,relative viability,HARA; first compound 2.53 µM,0.804
same,relative viability,HARA; first compound 8 µM,1.01
same,relative viability,LCLC-97TM1; first compound 0.253 µM,0.403
same,relative viability,LCLC-97TM1; first compound 0.8 µM,0.38
same,relative viability,LCLC-97TM1; first compound 2.53 µM,0.433
same,relative viability,LCLC-97TM1; first compound 8 µM,0.36
same,relative viability,NCI-H1944; first compound 0.253 µM,0.43
same,relative viability,NCI-H1944; first compound 2.53 µM,0.443
same,relative viability,NCI-H1944; first compound 8 µM,0.415
same,relative viability,NCI-H2023; first compound 0.253 µM,0.46
same,relative viability,NCI-H2023; first compound 0.8 µM,0.469
same,relative viability,NCI-H2023; first compound 2.53 µM,0.492
same,relative viability,NCI-H2023; first compound 8 µM,0.453
same,relative viability,NCI-H2405; first compound 0.253 µM,0.866
same,relative viability,NCI-H2405; first compound 0.8 µM,0.877
same,relative viability,NCI-H2405; first compound 2.53 µM,0.879
same,relative viability,NCI-H2405; first compound 8 µM,0.86
same,relative viability,NCI-H460; first compound 0.253 µM,0.394
same,relative viability,NCI-H460; first compound 0.8 µM,0.397
same,relative viability,NCI-H460; first compound 2.53 µM,0.438
same,relative viability,NCI-H460; first compound 8 µM,0.374
